Here are results for 5 compounds from patent publication US11690847B2, “Combinations of 15-PGDH inhibitors with corticosteroids and/or TNF inhibitors and uses thereof” (CASE WESTERN RESERVE UNIVERSITY, priority 2016, dated 2023).

Data set [1] deals with DSS induced colitis. Put plainly: DSS colitis treatment study: (+) SW033291, dexamethasone or combination from day 8. The format is in vivo, mice. The settings on record: (+) SW033291 5 mpk IP twice daily, dexamethasone 0.06 mpk IP daily.
For data set [2], the system named is DSS induced colitis. Put plainly: dextran sodium sulfate (DSS) induced colitis, 2% DSS days 1-7, SW033291 versus vehicle. The format is in vivo, FVB male mice. The protocol:
In the study, 8-12 week old FVB male mice were fed with 2% DSS in drinking water for days 1-7, and then switched to normal drinking water beginning on day 8, and continued through day 22. […] Clinical scoring (body weight, rectal bleeding, stool consistency) was recorded daily, endoscopic scoring (ulcer number, mucosal thickening, and vascular pattern) was assessed on days 8, 11, 15. Mice were sacrificed on days 1, 8, 15 and 22 for assessment of colon length, colon weight, ulcer number, ulcer area, and crypt damage.
The Disease Activity Index is calculated as an equally weighted average of the change from baseline weight, the consistency of stool, and the presence of rectal bleeding, with each component normalized to span an identical numerical range.
In addition to the gross visual inspection and scoring of colitis activity by the MEICS index, full length colons of mice were formalin fixed and paraffin embedded, and microscopic scoring of crypt damage was performed using the 0-4 severity scale of Cooper H S. Et al., Lab Invest. 1993; 69:238-249. For this analysis, the colons were divided into 3 segments of proximal, middle, and distal colon, each approximately 1.6 cm in length, with each segment was further subdivided into 4 sections each approximately 4 mm in length. For each section the crypt damage severity score was multiplied by the length in mm of the damaged area, creating a 0-16 cryptitis severity index. An average cryptitis severity index was calculated for each segment (proximal, middle, and distal colon), and the summed whole colon cryptitis severity index was determined on a scale of 0-48 for each mouse colon.
Mice were injected with BrdU at 100 mg/kg IP 3 hours before sacrifice and then full length colons were formalin fixed and embedded in paraffin. S-phase cells, that have incorporated BrdU into DNA, were visualized by immuno-fluorescent staining of 5 μm thick sections with an antibody that detects the BrdU. Colonic crypts were visualized by immuno-fluorescent staining with an antibody to the epithelial marker E-Cadherin. […] Red immune-fluorescence identifies BrdU positive nuclei, and green immune-fluorescence identifies E-Cadherin positive colonocytes. The number of BrdU positive cell per crypt is determined by counting the number of dual labeled red and green cells per average crypt. Green only cells that are not in S-phase are not counted, and red only cells, that are likely stromal cells outside of crypts, are also not counted. […] The graph depicts the sum of the average number of BrdU positive cells per crypt in the distal colon plus the average number of BrdU positive cells per crypt middle colons of control (Cn), […] treated (Tx), and 15-PGDH knockout mice (KO) on day 1, day 8, and day 15 of the DSS treatment protocol.

Data set [3] can be described thus: stability on incubation with hepatocyte cell lines. It counts as in vitro ADME.
Data set [4] is described as follows: stability on incubation with hepatocyte extracts. It counts as in vitro ADME.
The nature of data set [5]: stability on incubation with rat liver extracts. It counts as in vitro ADME.
Data set [6] can be described thus: stability on incubation with human liver extracts. The format is in vitro ADME.
Data set [7] can be described thus: stability on incubation with mouse liver extracts. It counts as in vitro ADME.

On to `CCCC[S+]([O-])c1sc2nc(-c3cccs3)cc(-c3ccccc3)c2c1N` (single isomer, unassigned; (+)) [(+) SW033291], for which, in data set [1] (days 1-17, from day 8, FIG. 15), the “daily weights (weight loss)” value is “some amelioration of weight loss”.

As for `CCCC[S+]([O-])c1sc2nc(-c3cccs3)cc(-c3ccccc3)c2c1N` (centres unmarked) [SW033291], the “average change from baseline weight versus control” value in data set [2] (5 mg/kg IP twice daily, 22 days, FIG. 1) is on record as “greater weight at all time points”. For the same compound, the “weight gain after washout of DSS versus control” value in data set [2] (5 mg/kg IP twice daily, P=0.001, FIG. 1) is given as “faster weight gain”. Moreover, the “Wt @sacrifice” value in data set [2] (Baseline) worked out at 25.9 ± 0.7 gm; in data set [2] (Day 8) it was 26.4 ± 0.5 gm; in data set [2] (Day 15), 25.2 ± 0.9 gm; in data set [2] (Day 22), 28.2 ± 0.5 gm. Moreover, the “body weight versus vehicle control (in words)” value in data set [2] (day 22) was “greater body weight”. Moreover, in data set [2] (day 22), the “colon length versus vehicle control (in words)” value is “greater colon lengths”. Besides, in data set [2] (days 8, 11, 15, versus control, FIG. 4A), the “ulcer formation prevented (colonoscopy)” value is “two-thirds”. Further, the “MEICS score versus vehicle” value in data set [2] (days 8, 11 and 15, FIG. 7) was “significantly less colitis activity”.

On to `C[C@@H]1C[C@H]2[C@@H]3CCC4=CC(=O)C=C[C@]4(C)[C@@]3(F)[C@@H](O)C[C@]2(C)[C@@]1(O)C(=O)CO` [dexamethasone, reference compound], for which the “percent decrease in total DAI (relative disease reduction)” value in data set [1] (area under the DAI curve, FIG. 17B) is 15%.

Consider `CCCC[S+]([O-])c1sc2nc(-c3cccs3)cc(-c3ccccc3)c2c1N` (centres unmarked) [formula (IX)], for which, in data set [3], the “chemical stability when incubated with hepatocyte cell lines” value is “chemically stable”. Besides, in data set [4], the “chemical stability when incubated with hepatocyte extracts” value was “chemically stable”.

As to `CCCC[S+]([O-])c1sc2nc(-c3nccs3)cc(-c3cnc(C)n3C)c2c1N` (centres unmarked) [formula (X)], the “chemical stability when incubated with liver extracts” value in data set [5], in data set [6] and in data set [7] was “chemically stable” in each case.
